“And” between values parts separate entries of the source, which are not always exact repeats. Identical values can stand only once. ± gives the uncertainty stated by the source.
Key:
[1] = xn = mol fraction of the nth substance listed

CCCCCCCCBr
101 kPa
Conditions | viscosity [mPa·s]
293.15 K | 1.544 ± 0.063
303.55 K | 1.406 ± 0.057
313.65 K | 1.204 ± 0.049

CCOCCO
viscosity
Conditions | 293.15 K | 298.15 K | 303 K | 303.15 K | 308.15 K | 313 K | 313.15 K | 318.15 K | 323.15 K
100 kPa | – | 1.92 ± 0.017 mPa·s | – | 1.682 ± 0.015 mPa·s | – | – | – | – | –
101 kPa | 2.054 ± 0.21 mPa·s | 1.814 ± 0.024 mPa·s | 1.67 ± 0.29 mPa·s | – | 1.487 ± 0.15 mPa·s and 1.453 ± 0.15 mPa·s and 1.469 ± 0.06 mPa·s | 1.341 ± 0.26 mPa·s | 1.336 ± 0.13 mPa·s and 1.341 ± 0.032 mPa·s and 1.368 ± 0.056 mPa·s | 1.279 ± 0.052 mPa·s | 1.065 ± 0.11 mPa·s
101.3 kPa | 2.04 ± 0.1 mPa·s | 1.819 ± 0.092 mPa·s | – | 1.631 ± 0.083 mPa·s | 1.402 ± 0.009 mPa·s and 1.47 ± 0.074 mPa·s | – | 1.332 ± 0.068 mPa·s | 1.212 ± 0.062 mPa·s | 1.108 ± 0.056 mPa·s
101.33 kPa | – | – | – | – | – | – | – | 1.18 ± 0.05 mPa·s | –

CC(C)CCO
Conditions | viscosity
293.15 K, 101.33 kPa | 4.579 ± 0.046 mPa·s
298.1 K, 101 kPa | 3.841 ± 0.079 mPa·s and 3.798 ± 0.0052 mPa·s
298.15 K, 100 kPa | 3.74 ± 0.062 mPa·s
298.15 K, 101.3 kPa | 3.48 ± 0.095 mPa·s
298.15 K, 101.33 kPa | 3.581 ± 0.043 mPa·s
303.15 K, 101.3 kPa | 2.95 ± 0.081 mPa·s and 2.958 ± 0.034 mPa·s and 2.96 ± 0.036 mPa·s
308.15 K, 100 kPa | 2.654 ± 0.059 mPa·s
308.15 K, 101 kPa | 2.805 ± 0.044 mPa·s and 2.61 ± 0.06 mPa·s and 2.881 ± 0.033 mPa·s
308.15 K, 101.3 kPa | 2.53 ± 0.069 mPa·s
308.15 K, 101.33 kPa | 2.59 ± 0.032 mPa·s
313.15 K, 101.3 kPa | 2.21 ± 0.061 mPa·s
313.15 K, 101.33 kPa | 2.537 ± 0.025 mPa·s and 2.391 ± 0.028 mPa·s
318.15 K, 101 kPa | 2.05 ± 0.04 mPa·s and 2.23 ± 0.026 mPa·s
323.15 K, 101 kPa | 1.867 ± 0.036 mPa·s and 1.974 ± 0.023 mPa·s
323.15 K, 101.33 kPa | 1.827 ± 0.022 mPa·s

CC(CC(C)(C)C)CP(=O)(O)CC(C)CC(C)(C)C (centres undefined)
Conditions | viscosity [mPa·s]
298.15 K, 101 kPa | 120 ± 2.2

CC(C)CCO + C1COCCO1
viscosity [mPa·s], [1], 101 kPa
Conditions | x1 = 0.1 | x1 = 0.2067 | x1 = 0.3006 | x1 = 0.4011 | x1 = 0.5011 | x1 = 0.609 | x1 = 0.7009 | x1 = 0.8003 | x1 = 0.908
298.15 K | 1.135 ± 0.02 | 1.151 ± 0.02 | 1.189 ± 0.021 | 1.261 ± 0.022 | 1.37 ± 0.023 | 1.519 ± 0.025 | 1.737 ± 0.028 | 2.122 ± 0.034 | 2.79 ± 0.044
303.15 K | 1.049 ± 0.019 | 1.068 ± 0.019 | 1.116 ± 0.019 | 1.177 ± 0.02 | 1.265 ± 0.021 | 1.388 ± 0.023 | 1.562 ± 0.025 | 1.87 ± 0.03 | 2.429 ± 0.039
308.15 K | 0.9581 ± 0.017 | 0.9865 ± 0.017 | 1.039 ± 0.018 | 1.097 ± 0.019 | 1.156 ± 0.019 | 1.243 ± 0.021 | 1.359 ± 0.022 | 1.615 ± 0.026 | 2.081 ± 0.033

Oc1ccc(Cl)cc1 + CCCCNCCCC
[1], 298.16 K, 101 kPa
Conditions | viscosity [mPa·s]
x1 = 0.4053 | 3.541 ± 0.074
x1 = 0.5045 | 11.99 ± 0.24
x1 = 0.5585 | 31.68 ± 0.72
x1 = 0.6051 | 56.94 ± 1.5
x1 = 0.6526 | 126.7 ± 4.9
x1 = 0.6871 | 181.4 ± 8.4
x1 = 0.7235 | 251.1 ± 14
x1 = 0.7533 | 273.6 ± 16
x1 = 0.7813 | 263 ± 15
x1 = 0.8104 | 221 ± 11
x1 = 0.84 | 163.2 ± 7
x1 = 0.8686 | 111.1 ± 3.8
x1 = 0.8961 | 79.37 ± 2.2
x1 = 0.9256 | 53.62 ± 1.2
x1 = 0.9749 | 26.85 ± 0.45

CC(C)CCO + OCCO
viscosity [mPa·s], [1], 100 kPa
Conditions | x1 = 0.0538 | x1 = 0.1127 | x1 = 0.1769 | x1 = 0.2492 | x1 = 0.3333 | x1 = 0.4312 | x1 = 0.5385 | x1 = 0.6667 | x1 = 0.8167
298.15 K | 17.29 ± 0.092 | 16.59 ± 0.091 | 15.84 ± 0.09 | 14.92 ± 0.088 | 13.82 ± 0.086 | 12.46 ± 0.084 | 10.93 ± 0.081 | 8.999 ± 0.076 | 6.622 ± 0.07
303.15 K | 13.53 ± 0.081 | 13.1 ± 0.08 | 12.52 ± 0.08 | 11.8 ± 0.079 | 10.97 ± 0.077 | 9.889 ± 0.075 | 8.629 ± 0.073 | 7.087 ± 0.07 | 5.243 ± 0.066
308.15 K | 11.48 ± 0.075 | 11.11 ± 0.075 | 10.72 ± 0.074 | 10.22 ± 0.074 | 9.549 ± 0.073 | 8.689 ± 0.072 | 7.683 ± 0.07 | 6.336 ± 0.068 | 4.792 ± 0.064

CC(CC(C)(C)C)CP(=O)(O)CC(C)CC(C)(C)C (centres undefined) + c1ccccc1
[1], 298.15 K, 101 kPa
Conditions | viscosity [mPa·s]
x1 = 0.0058 | 0.631 ± 0.007
x1 = 0.0104 | 0.661 ± 0.008
x1 = 0.0122 | 0.678 ± 0.008
x2 = 0.1178 | 93.82 ± 1.4
x2 = 0.2304 | 71.32 ± 0.9
x2 = 0.3732 | 46.06 ± 0.54
x2 = 0.5517 | 20.77 ± 0.24
x2 = 0.6956 | 8.438 ± 0.098
x2 = 0.784 | 4.43 ± 0.051
x2 = 0.7966 | 4.061 ± 0.047
x2 = 0.8411 | 2.952 ± 0.034
x2 = 0.8809 | 2.165 ± 0.025
x2 = 0.8838 | 2.106 ± 0.024
x2 = 0.9333 | 1.332 ± 0.015
x2 = 0.9375 | 1.29 ± 0.015
x2 = 0.9656 | 0.94 ± 0.011
x2 = 0.9738 | 0.83 ± 0.01

O=S(=O)([O-])c1ccc(Cl)cc1.[Na+] + O
viscosity [mPa·s], [1], 101 kPa
Conditions | x1 = 9e-05 | x1 = 0.00018 | x1 = 0.0009 | x1 = 0.0018 | x1 = 0.00448 | x1 = 0.00893 | x1 = 0.0133 | x1 = 0.0177
298.15 K | 0.899 ± 0.009 | 0.9 ± 0.009 | 0.916 ± 0.009 | 0.939 ± 0.01 | 1 ± 0.01 | 1.103 ± 0.011 | 1.219 ± 0.013 | –
318.15 K | 0.598 ± 0.006 | 0.599 ± 0.006 | 0.608 ± 0.006 | 0.623 ± 0.006 | 0.659 ± 0.006 | 0.723 ± 0.007 | 0.793 ± 0.008 | 0.869 ± 0.008

CCOCCO + CO
[1], 298.15 K, 101 kPa
Conditions | viscosity [mPa·s]
x1 = 0.038 | 0.6216 ± 0.0055
x1 = 0.0816 | 0.7062 ± 0.0066
x1 = 0.1322 | 0.7916 ± 0.0079
x1 = 0.1916 | 0.8844 ± 0.0096
x1 = 0.2623 | 0.9885 ± 0.012
x1 = 0.3478 | 1.114 ± 0.015
x1 = 0.4534 | 1.255 ± 0.019
x1 = 0.5871 | 1.422 ± 0.025
x1 = 0.7619 | 1.625 ± 0.034

CC(C)CCO + O
[1]
Conditions | viscosity [mPa·s]
293.15 K, 101.33 kPa, x1 = 0.0021 | 1.074 ± 0.011
293.15 K, 101.33 kPa, x1 = 0.0042 | 1.123 ± 0.011
293.15 K, 101.33 kPa, x1 = 0.0052 | 1.47 ± 0.015
298.15 K, 101 kPa, x2 = 0.0019 | 3.738 ± 0.034
298.15 K, 101 kPa, x2 = 0.0485 | 3.634 ± 0.035
298.15 K, 101 kPa, x2 = 0.091 | 3.563 ± 0.037
298.15 K, 101 kPa, x2 = 0.1325 | 3.518 ± 0.038
298.15 K, 101 kPa, x2 = 0.1769 | 3.49 ± 0.04
298.15 K, 101 kPa, x2 = 0.2065 | 3.482 ± 0.041
298.15 K, 101 kPa, x2 = 0.2272 | 3.48 ± 0.043
298.15 K, 101 kPa, x2 = 0.2538 | 3.486 ± 0.044
298.15 K, 101 kPa, x2 = 0.3132 | 3.518 ± 0.048
303.15 K, 101.33 kPa, x1 = 0.0021 | 0.851 ± 0.0085
303.15 K, 101.33 kPa, x1 = 0.0042 | 0.894 ± 0.0089
303.15 K, 101.33 kPa, x1 = 0.0052 | 0.907 ± 0.0091
313.15 K, 101.33 kPa, x1 = 0.0021 | 0.693 ± 0.0069
313.15 K, 101.33 kPa, x1 = 0.0042 | 0.721 ± 0.0072
323.15 K, 101.33 kPa, x1 = 0.0021 | 0.59 ± 0.0059
323.15 K, 101.33 kPa, x1 = 0.0042 | 0.617 ± 0.0062

CCOCCO + Cc1ccccc1C
viscosity [mPa·s], [1], 101 kPa
Conditions | 298.15 K | 308.15 K
x1 = 0.0533 | 0.777 ± 0.014 | 0.674 ± 0.012
x1 = 0.1508 | 0.817 ± 0.014 | 0.708 ± 0.013
x1 = 0.2502 | 0.867 ± 0.015 | 0.75 ± 0.013
x1 = 0.3516 | 0.931 ± 0.016 | 0.8 ± 0.014
x1 = 0.4528 | 1.009 ± 0.017 | 0.858 ± 0.015
x1 = 0.5042 | 1.056 ± 0.017 | 0.892 ± 0.015
x1 = 0.553 | 1.104 ± 0.018 | 0.926 ± 0.016
x1 = 0.6472 | 1.211 ± 0.02 | 1.001 ± 0.017
x1 = 0.7494 | 1.353 ± 0.022 | 1.096 ± 0.018
x1 = 0.8486 | 1.52 ± 0.024 | 1.204 ± 0.02
x1 = 0.954 | 1.739 ± 0.028 | 1.34 ± 0.022

CCOCCO + CCCCCCCO
[1], 298.15 K, 101 kPa
Conditions | viscosity [mPa·s]
x1 = 0.1253 | 4.967 ± 0.046
x1 = 0.2438 | 4.207 ± 0.048
x1 = 0.3559 | 3.655 ± 0.049
x1 = 0.4623 | 3.23 ± 0.049
x1 = 0.5632 | 2.902 ± 0.05
x1 = 0.6592 | 2.617 ± 0.05
x1 = 0.7505 | 2.383 ± 0.05
x1 = 0.8376 | 2.2 ± 0.049
x1 = 0.9207 | 2.041 ± 0.049

CCOCCO + Cc1ccccc1
viscosity [mPa·s], [1], 101 kPa
Conditions | 298.15 K | 308.15 K
x1 = 0.056 | 0.576 ± 0.011 | 0.517 ± 0.01
x1 = 0.1494 | 0.627 ± 0.011 | 0.554 ± 0.01
x1 = 0.2493 | 0.69 ± 0.012 | 0.601 ± 0.011
x1 = 0.3539 | 0.771 ± 0.013 | 0.66 ± 0.012
x1 = 0.449 | 0.859 ± 0.015 | 0.723 ± 0.013
x1 = 0.5019 | 0.915 ± 0.015 | 0.763 ± 0.013
x1 = 0.5488 | 0.969 ± 0.016 | 0.802 ± 0.014
x1 = 0.6514 | 1.107 ± 0.018 | 0.899 ± 0.015
x1 = 0.7465 | 1.261 ± 0.021 | 1.007 ± 0.017
x1 = 0.8514 | 1.468 ± 0.024 | 1.149 ± 0.019
x1 = 0.9527 | 1.716 ± 0.027 | 1.317 ± 0.022

— the CheMixHub viscosity set
